{"source": "patent US20250213531A1", "about": "“5-MEO-DTM FOR THE TREATMENT OF BIPOLAR DISORDER” (GH RESEARCH IRELAND LIMITED, priority 2022, published 2025)", "tested_on": "patients with postpartum depression (PPD)", "assay": "Clinical trial of inhaled 5-MeO-DMT (IDR) in postpartum depression, one patient (6 mg then 12 mg)", "settings": "n=1", "experimental": "The single-arm, open-label clinical trial will involve 15 adult female patients with clinically diagnosed postpartum depression (PPD).\nThe second dose (12 mg) will only be administered if: • a. […] The 6 mg dose was safe and well-tolerated according to the investigator, • c. Any psychoactive effects (PsE) of the prior dose have subsided, and • d. Pre-dose vital parameters and forced expiratory volume in one second (FEV1) are in normal range, or if outside of the normal range, are not clinically significant according to the investigator. • 3. Similarly, a third dose (18 mg) will only be administered if: • a. […] The 12 mg dose was safe and well-tolerated according to the investigator, and • c. Any PsE of the prior dose have subsided, and • d. Pre-dose vital parameters and forced expiratory volume in one second (FEV1) are in normal range, or if outside of the normal range, are not clinically significant according to the investigator.\nThe patients will be assessed for a peak psychedelic experience (based on a patient-scored visual analogue scale, the PE scale), sedation, and other endpoints after dosing. Follow-up visits are planned for Day 1, and Day 7 after the dosing day.", "data": [{"compound": "COc1ccc2[nH]cc(CCN(C)C)c2c1", "note": "[5-MeO-DMT]", "values": [{"measurement": "standard criteria for MADRS response (at least 50% improvement) and MADRS remission (total score <=10)", "value": "fulfilled"}, {"measurement": "tolerability of inhalation procedure", "value": "well tolerated with no inhalation-related adverse events"}, {"measurement": "adverse events (cramping left abdominal pain, headache)", "setting": "Day 0", "value": "mild, short-lasting and resolved spontaneously"}, {"measurement": "ECG, safety laboratory analyses, CADSS", "setting": "ECG 3 hours, laboratory 7 days, CADSS 3 hours, 1 day, 7 days", "value": "unremarkable"}]}]}
